Measured values: US20080300298A1, “Honokiol Derivates For the Treatment of Proliferative Disorders” (priority 2005, published 2008)

Tests used:
[1] = tested on: caspases, PARP, AIF in MM.1S cells; assay: Western blotting of apoptotic pathway; format: cell-based, human; conditions: 10 ug/ml
[2] = tested on: microvascular endothelial cells; assay: endothelial proliferation with TRAIL antibody; format: cell-based; conditions: 0, 1, 6 or 9 μg/ml, 48 h
Protocol: 10^4/well microvascular endothelial cells were cultured in 24-well plates for 24 h. The next day, cells were washed by PBS and pretreated with 0.5 ml/well fresh MEC medium with 0, 1, 6, or 9 μg/ml honokiol for 30 min before addition of TRAIL or isotype control antibody (30 μg/well). Cells were incubated for 48 h after the addition of reagents and were counted with a Coulter Counter. The green bars represent endothelial cells treated with honokiol alone, the dark blue bars represent cells treated with honokiol and TRAIL antibody, and the light blue bars represent cells treated with honokiol and isotype control antibody. The differences in honokiol-treated endothelium in the presence or absence of TRAIL antibody are significant (p<0.05).

IkBa and p65 = assay: Western blot / immunocytochemistry of TNF-induced IkBa and p65 events; format: cell-based, human
Protocol: Honokiol inhibits TNF-induced activation of NF-kB. H1299 cells were incubated with […] honokiol for 12 h, treated with 0.1 nM TNF for the indicated times, and then analyzed for NF-kB activation by EMSA. (B) H1299 cells (2×10^6/ml) were incubated with […] honokiol for 12 h at 37° C., treated with 0.1 nM TNF for the indicated times at 37° C., and then tested for IkBa (upper panel) in cytosolic fractions by Western blot analysis. Equal protein loading was evaluated by b-actin (lower panel). (C) Honokiol blocks the phosphorylation and ubiquitination (D) of IkBaby TNF. Cells were preincubated with […] honokiol for 12 h, incubated with […]/ml N-acetyl-leucyl-leucyl-norleucinal (ALLN) for 30 min, and then treated with 0.1 nM TNF for 10 min. Cytoplasmic extracts were fractionated and then subjected to Western blot analysis using phospho-specific anti-IkBa antibody. The same membrane was reblotted with anti-IkBa antibody. (E) Honokiol inhibits TNF-induced IkBakinase activity. H1299 cells (2×10^6/ml) were treated with […] honokiol for 12 h and then treated with 0.1 nM TNF for the indicated time intervals. Whole-cell extracts were prepared, and 200 mg of extract was immunoprecipitated with antibodies against IKKa and IKKb. The immune complex kinase assay was then performed as described in Materials and Methods. To examine the effect of honokiol on the level of expression of IKK proteins, 30 mg of whole-cell extract was analyzed on 10% SDS-PAGE, electrotransferred, and immunoblotted with the indicated antibodies as described in Materials and Methods. (F) Honokiol inhibits TNF-induced nuclear translocation of p65. H1299 cells (2×10^6/ml) were either untreated or pretreated with […] honokiol for 12 h at 37° C. and then treated with 0.1 nM TNF for the indicated times. Nuclear extracts were prepared and analyzed by Western blotting using antibodies against p65. (G) honokiol inhibits TNF-induced nuclear translocation of p65. H1299 cells (1×10^6/ml) were first treated with […] honokiol for 12 h at 37° C. and then exposed to 0.1 nM TNF. After cytospin, immunocytochemical analysis was performed as described in Materials and Methods. […] (H) Honokiol inhibits TNF-induced phosphorylation of p65. H1299 cells (2×10^6/ml) were incubated with 25 mM honokiol for 12 h and then treated with 0.1 nM TNF for the indicated times. The cytoplasmic and nuclear extracts were analyzed by Western blotting using antibodies against the phosphorylated form of p65.
Western blot analysis. […] Cytoplasmic protein […] was resolved on 10% SDS-PAGE gel, transferred to a nitrocellulose membrane, blocked with 5% non-fat milk, and probed with specific antibodies against IkBa, posphorylated IkBa, p65, and phosphorylated p65. To determine the expression of cyclin D1, COX-2, MMP-9, cIAP-1, TRAF1, Bcl-2, Bfl-1, cFLIP, and survivin in whole-cell extracts of treated cells (2×10^6 cells in 2 ml of medium), […] of protein was resolved on SDS-PAGE and probed by Western blot with specific antibodies as per the manufacturer's recommended protocol. The blots were washed, exposed to HRP-conjugated secondary antibodies for 1 h, and finally detected by ECL reagent (Amersham Pharmacia Biotechnology, Piscataway, N.J.). The bands were quantified using a Personal Densitometer Scan v1.30 using Imagequant software version 3.3 (Molecular Dynamics).
Immunolocalization of NF-kB p65. […]

NFkB in M12.4.1 cells = assay: NFkB activation (luciferase assay); format: cell-based, Mouse; conditions: M12.4.1 cells transfected with hCD40-LMP1; not necessarily to baseline
Protocol: Mouse M12.4.1 cells (1.5×107), stably transfected with hCD40-LMP1 chimeric molecule were transiently transfected with […] 4×NFkB luciferase reporter plasmid and […] Renilla luciferase vector (pRL-null; Promega, Madison, Wis.) by electroporation. Cells (2×10^6 cells/ml) were rested on ice for 15 minutes, treated with medium alone (BCM), 10 mg/ml anti-TNF-a (MP6-XT3; MP6-XT22), or […] Honokiol for 30 minutes, then incubated an additional 6 hours in the presence of BCM, 10 mg/ml anti-(m)ouse or anti-(h)uman CD40 or isotype controls. After stimulation, cells were pelleted, lysed, and assayed for relative luciferase activity (NFkB: Renilla) per manufacturer's protocol (Promega) using a Turner Designs 20/20 luminometer, with settings of 2 second delay followed by 10 second read. (Note: anti-mCD40 reacts with endougenous CD40 and anti-hCD40 reacts with transfected hCD40-LMP1).

[3] = tested on: human promyelocytic leukemic cell line HL-60; conditions: cited from earlier work

C=CCc1ccc(O)c(-c2ccc(O)c(CC=C)c2)c1 [HNK, Honokiol]
cleavage of caspases and PARP ([1]; 12 and 24 h): Cleavage of caspases 7, 8, 9 and PARP were induced | release of AIF ([1]; 24 h): induced release of mitochondrial pro-apoptotic protein AIF to cytosol | inhibition of endothelial proliferation with or without TRAIL antibody [2]: TRAIL-dependent | TNF-induced phosphorylation of p65 (IkBa and p65): suppressed p65 phosphorylation almost completely | TNF-dependent IkBa degradation (IkBa and p65; 25 mM (printed) honokiol 12 h, 0.1 nM TNF): TNF had no effect on IkBa degradation | TNF-induced nuclear translocation of p65 (IkBa and p65; Western blot analysis): suppressed nuclear translocation of the p65 subunit of NF-kB | TNF-induced IkBa phosphorylation (IkBa and p65; with ALLN, 0.1 nM TNF 10 min): completely suppressed it | TNF-induced IkBa ubiquitination (IkBa and p65; with ALLN, 0.1 nM TNF 10 min): completely suppressed it | NFkB activation (luciferase assay) (NFkB in M12.4.1 cells): inhibited by honokiol in a dose dependent manner | IC50 value [3]: less than 100 ng/ml
